Results: the supplement of paper PMC4862054

tested on: SK-BR-3; test: normalised response (% of control), CellTiter-Glo; higher = more viable cells (100 = DMSO, 0 = benzethonium chloride kill control); settings: incubation time: 72 h
Procedure, shortened: (§1)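 Normalised signals at single concentrations make up the values. They come from breast cancer cell lines seeded (20 µl suspension) into 384-well plates with compound at 5 concentrations in 10-fold steps over a compound-specific 10,000-fold range, incubated 72 h, and read for CellTox Green fluorescence then CellTiter-Glo luminescence. Each plate was normalised to 0.1 % DMSO (100) and a positive kill control (0).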

SMILES | normalised response [%]
CCCc1cc(C)[nH]c(=O)c1CNC(=O)c1cc(-c2ccnc(N3CCN(C)CC3)c2)cc2c1cnn2C(C)C [GSK343] (100 nM) | 88.1
NC(=O)NO [Hydroxyurea] (1000 nM) | 103
COc1cc2c(cc1-c1c(C)noc1C)ncc1[nH]c(=O)n([C@H](C)c3ccccn3)c12 [I-BET151] (100 nM) | 105
CC(C)n1nc(-c2ccc3oc(N)nc3c2)c2c(N)ncnc21 [INK128] (10 nM) | 55.6
O=C(O)CC[C@H]1CC[C@@](c2cc(F)ccc2F)(S(=O)(=O)c2ccc(Cl)cc2)CC1 [MK-0752] (10 nM) | 105

tested on: MDA-MB-453; test: as above; settings: incubation time: 72 h
Procedure, shortened: as §1

SMILES | normalised response [%]
CC(C)NC[C@@H](C(=O)N1CCN(c2ncnc3c2[C@H](C)C[C@H]3O)CC1)c1ccc(Cl)cc1 [GDC-0068] (100 nM) | 84.2
CCCc1cc(C)[nH]c(=O)c1CNC(=O)c1cc(-c2ccnc(N3CCN(C)CC3)c2)cc2c1cnn2C(C)C [GSK343] (100 nM) | 90
NC(=O)NO [Hydroxyurea] (1000 nM) | 109
COc1cc2c(cc1-c1c(C)noc1C)ncc1[nH]c(=O)n([C@H](C)c3ccccn3)c12 [I-BET151] (100 nM) | 85.7
CC(C)n1nc(-c2ccc3oc(N)nc3c2)c2c(N)ncnc21 [INK128] (10 nM) | 73.8
O=C(O)CC[C@H]1CC[C@@](c2cc(F)ccc2F)(S(=O)(=O)c2ccc(Cl)cc2)CC1 [MK-0752] (10 nM) | 114

tested on: HDQ-P1; test: as above; settings: incubation time: 72 h
Procedure, shortened: as §1

SMILES | normalised response [%]
CC(C)NC[C@@H](C(=O)N1CCN(c2ncnc3c2[C@H](C)C[C@H]3O)CC1)c1ccc(Cl)cc1 [GDC-0068] (100 nM) | 89.2
CCCc1cc(C)[nH]c(=O)c1CNC(=O)c1cc(-c2ccnc(N3CCN(C)CC3)c2)cc2c1cnn2C(C)C [GSK343] (100 nM) | 96.5
NC(=O)NO [Hydroxyurea] (1000 nM) | 95.2
COc1cc2c(cc1-c1c(C)noc1C)ncc1[nH]c(=O)n([C@H](C)c3ccccn3)c12 [I-BET151] (100 nM) | 96
CC(C)n1nc(-c2ccc3oc(N)nc3c2)c2c(N)ncnc21 [INK128] (10 nM) | 75
O=C(O)CC[C@H]1CC[C@@](c2cc(F)ccc2F)(S(=O)(=O)c2ccc(Cl)cc2)CC1 [MK-0752] (10 nM) | 99.3

tested on: BT-474; test: as above; settings: incubation time: 72 h
Procedure, shortened: as §1

SMILES | normalised response [%]
CC(C)NC[C@@H](C(=O)N1CCN(c2ncnc3c2[C@H](C)C[C@H]3O)CC1)c1ccc(Cl)cc1 [GDC-0068] (100 nM) | 102
CCCc1cc(C)[nH]c(=O)c1CNC(=O)c1cc(-c2ccnc(N3CCN(C)CC3)c2)cc2c1cnn2C(C)C [GSK343] (100 nM) | 94.8
NC(=O)NO [Hydroxyurea] (1000 nM) | 92.1
COc1cc2c(cc1-c1c(C)noc1C)ncc1[nH]c(=O)n([C@H](C)c3ccccn3)c12 [I-BET151] (100 nM) | 89.6
CC(C)n1nc(-c2ccc3oc(N)nc3c2)c2c(N)ncnc21 [INK128] (10 nM) | 78.9
O=C(O)CC[C@H]1CC[C@@](c2cc(F)ccc2F)(S(=O)(=O)c2ccc(Cl)cc2)CC1 [MK-0752] (10 nM) | 105

tested on: HCC1143; test: as above; settings: incubation time: 72 h
Procedure, shortened: as §1

SMILES | normalised response [%]
CC(C)NC[C@@H](C(=O)N1CCN(c2ncnc3c2[C@H](C)C[C@H]3O)CC1)c1ccc(Cl)cc1 [GDC-0068] (100 nM) | 100
CCCc1cc(C)[nH]c(=O)c1CNC(=O)c1cc(-c2ccnc(N3CCN(C)CC3)c2)cc2c1cnn2C(C)C [GSK343] (100 nM) | 93.2
NC(=O)NO [Hydroxyurea] (1000 nM) | 105
COc1cc2c(cc1-c1c(C)noc1C)ncc1[nH]c(=O)n([C@H](C)c3ccccn3)c12 [I-BET151] (100 nM) | 117
CC(C)n1nc(-c2ccc3oc(N)nc3c2)c2c(N)ncnc21 [INK128] (10 nM) | 85.8
O=C(O)CC[C@H]1CC[C@@](c2cc(F)ccc2F)(S(=O)(=O)c2ccc(Cl)cc2)CC1 [MK-0752] (10 nM) | 105

tested on: MDA-MB-468; test: as above; settings: incubation time: 72 h
Procedure, shortened: as §1

SMILES | normalised response [%]
CC(C)NC[C@@H](C(=O)N1CCN(c2ncnc3c2[C@H](C)C[C@H]3O)CC1)c1ccc(Cl)cc1 [GDC-0068] (100 nM) | 84
CCCc1cc(C)[nH]c(=O)c1CNC(=O)c1cc(-c2ccnc(N3CCN(C)CC3)c2)cc2c1cnn2C(C)C [GSK343] (100 nM) | 84.6
NC(=O)NO [Hydroxyurea] (1000 nM) | 102
COc1cc2c(cc1-c1c(C)noc1C)ncc1[nH]c(=O)n([C@H](C)c3ccccn3)c12 [I-BET151] (100 nM) | 98.9
CC(C)n1nc(-c2ccc3oc(N)nc3c2)c2c(N)ncnc21 [INK128] (10 nM) | 81.2
O=C(O)CC[C@H]1CC[C@@](c2cc(F)ccc2F)(S(=O)(=O)c2ccc(Cl)cc2)CC1 [MK-0752] (10 nM) | 96.1

tested on: MDA-MB-231; test: as above; settings: incubation time: 72 h
Procedure, shortened: as §1

SMILES | normalised response [%]
CC(C)NC[C@@H](C(=O)N1CCN(c2ncnc3c2[C@H](C)C[C@H]3O)CC1)c1ccc(Cl)cc1 [GDC-0068] (100 nM) | 104
CCCc1cc(C)[nH]c(=O)c1CNC(=O)c1cc(-c2ccnc(N3CCN(C)CC3)c2)cc2c1cnn2C(C)C [GSK343] (100 nM) | 97.2
NC(=O)NO [Hydroxyurea] (1000 nM) | 100
COc1cc2c(cc1-c1c(C)noc1C)ncc1[nH]c(=O)n([C@H](C)c3ccccn3)c12 [I-BET151] (100 nM) | 99.6
CC(C)n1nc(-c2ccc3oc(N)nc3c2)c2c(N)ncnc21 [INK128] (10 nM) | 81.8
O=C(O)CC[C@H]1CC[C@@](c2cc(F)ccc2F)(S(=O)(=O)c2ccc(Cl)cc2)CC1 [MK-0752] (10 nM) | 109

tested on: MCF-10A; test: as above; settings: incubation time: 72 h
Procedure, shortened: as §1

SMILES | normalised response [%]
CC(C)NC[C@@H](C(=O)N1CCN(c2ncnc3c2[C@H](C)C[C@H]3O)CC1)c1ccc(Cl)cc1 [GDC-0068] (100 nM) | 111
CCCc1cc(C)[nH]c(=O)c1CNC(=O)c1cc(-c2ccnc(N3CCN(C)CC3)c2)cc2c1cnn2C(C)C [GSK343] (100 nM) | 92.7
NC(=O)NO [Hydroxyurea] (1000 nM) | 99.2
COc1cc2c(cc1-c1c(C)noc1C)ncc1[nH]c(=O)n([C@H](C)c3ccccn3)c12 [I-BET151] (100 nM) | 93.8
CC(C)n1nc(-c2ccc3oc(N)nc3c2)c2c(N)ncnc21 [INK128] (10 nM) | 89.1
O=C(O)CC[C@H]1CC[C@@](c2cc(F)ccc2F)(S(=O)(=O)c2ccc(Cl)cc2)CC1 [MK-0752] (10 nM) | 105

tested on: CAL-85-1; test: as above; settings: incubation time: 72 h
Procedure, shortened: as §1

SMILES | normalised response [%]
CC(C)NC[C@@H](C(=O)N1CCN(c2ncnc3c2[C@H](C)C[C@H]3O)CC1)c1ccc(Cl)cc1 [GDC-0068] (100 nM) | 98.3
CCCc1cc(C)[nH]c(=O)c1CNC(=O)c1cc(-c2ccnc(N3CCN(C)CC3)c2)cc2c1cnn2C(C)C [GSK343] (100 nM) | 91.9
NC(=O)NO [Hydroxyurea] (1000 nM) | 110
COc1cc2c(cc1-c1c(C)noc1C)ncc1[nH]c(=O)n([C@H](C)c3ccccn3)c12 [I-BET151] (100 nM) | 104
CC(C)n1nc(-c2ccc3oc(N)nc3c2)c2c(N)ncnc21 [INK128] (10 nM) | 81.4
O=C(O)CC[C@H]1CC[C@@](c2cc(F)ccc2F)(S(=O)(=O)c2ccc(Cl)cc2)CC1 [MK-0752] (10 nM) | 97.2

tested on: DU-4475; test: as above; settings: incubation time: 72 h
Procedure, shortened: as §1

SMILES | normalised response [%]
CC(C)NC[C@@H](C(=O)N1CCN(c2ncnc3c2[C@H](C)C[C@H]3O)CC1)c1ccc(Cl)cc1 [GDC-0068] (100 nM) | 98.8
CCCc1cc(C)[nH]c(=O)c1CNC(=O)c1cc(-c2ccnc(N3CCN(C)CC3)c2)cc2c1cnn2C(C)C [GSK343] (100 nM) | 92.5
NC(=O)NO [Hydroxyurea] (1000 nM) | 99.6
